The source of these data is ChEMBL document CHEMBL1150742, “Verrucofortine, a major metabolite of Penicillium verrucosum var. cyclopium, the fungus that produces the mycotoxin verrucosidin” (J Nat Prod, 1988).

Common to all, as to settings: in vivo
Data set [1] deals with Mus musculus. The data set can be described thus: Neurotoxicity in mouse assessed as distress at 160 mg/kg, ip. It counts as toxicity, organism-based. Further details: dose 160 mg/kg, route intraperitoneal.
For data set [2], the system named is Mus musculus. Nature of the data set: Neurotoxicity in mouse assessed as labored breathing at 160 mg/kg, ip. Type of data set: toxicity, organism-based. On the set-up: dose 160 mg/kg, route intraperitoneal.
In data set [3] the test system is Mus musculus. Nature of the data set: Neurotoxicity in mouse assessed as ataxia at 160 mg/kg, ip. It counts as toxicity, organism-based. Further details: dose 160 mg/kg, route intraperitoneal.
Data set [4] concerns Mus musculus. Nature of the data set: Neurotoxicity in mouse assessed as tremorgenic activity at 160 mg/kg, ip. It counts as toxicity, organism-based. On the set-up: dose 160 mg/kg, route intraperitoneal.
Data set [5] is described as follows: Toxicity in ip dosed mouse. Type of data set: organism-based.

As for `C=CC(C)(C)[C@@]12C[C@H]3C(=O)N[C@H](CC(C)C)C(=O)N3[C@H]1N(C(C)=O)c1ccccc12` [VERRUCOFORTINE], the Activity entry in the data set with Mus musculus [1], in the data set on Mus musculus [2], with Mus musculus [3] and in the data set on Mus musculus [4] was “Non-toxic” throughout.

A word on the LD50: it is the dose at which mortality reaches 50%. A low value points to greater toxicity. Take `COc1c(C)c([C@]2(C)O[C@H]2/C(C)=C/C(C)=C/[C@]2(C)O[C@H](C)[C@@]3(C)O[C@H]32)oc(=O)c1C` [VERRUCOSIDIN]: in data set [5], the 50% lethal dose (LD50) is 4 mg/kg.
